{"source": "paper PMC7206119", "about": "“RIP1 inhibition blocks inflammatory diseases but not tumor growth or metastases” (Cell Death and Differentiation, 2019)", "assay_in_all_cases": "biochemical", "parameters_in_all_cases": "DiscoverX kinase panel, active-site competition binding (KINOMEscan type), percent of control at one concentration", "conditions_in_all_cases": "competition binding, percent of control", "key": {"PIK3CA(H1047L)": {"biological_target": "PIK3CA(H1047L) (Homo sapiens, UniProt P42336, H1047L)", "sequence (P42336 whole entry H1047L)": "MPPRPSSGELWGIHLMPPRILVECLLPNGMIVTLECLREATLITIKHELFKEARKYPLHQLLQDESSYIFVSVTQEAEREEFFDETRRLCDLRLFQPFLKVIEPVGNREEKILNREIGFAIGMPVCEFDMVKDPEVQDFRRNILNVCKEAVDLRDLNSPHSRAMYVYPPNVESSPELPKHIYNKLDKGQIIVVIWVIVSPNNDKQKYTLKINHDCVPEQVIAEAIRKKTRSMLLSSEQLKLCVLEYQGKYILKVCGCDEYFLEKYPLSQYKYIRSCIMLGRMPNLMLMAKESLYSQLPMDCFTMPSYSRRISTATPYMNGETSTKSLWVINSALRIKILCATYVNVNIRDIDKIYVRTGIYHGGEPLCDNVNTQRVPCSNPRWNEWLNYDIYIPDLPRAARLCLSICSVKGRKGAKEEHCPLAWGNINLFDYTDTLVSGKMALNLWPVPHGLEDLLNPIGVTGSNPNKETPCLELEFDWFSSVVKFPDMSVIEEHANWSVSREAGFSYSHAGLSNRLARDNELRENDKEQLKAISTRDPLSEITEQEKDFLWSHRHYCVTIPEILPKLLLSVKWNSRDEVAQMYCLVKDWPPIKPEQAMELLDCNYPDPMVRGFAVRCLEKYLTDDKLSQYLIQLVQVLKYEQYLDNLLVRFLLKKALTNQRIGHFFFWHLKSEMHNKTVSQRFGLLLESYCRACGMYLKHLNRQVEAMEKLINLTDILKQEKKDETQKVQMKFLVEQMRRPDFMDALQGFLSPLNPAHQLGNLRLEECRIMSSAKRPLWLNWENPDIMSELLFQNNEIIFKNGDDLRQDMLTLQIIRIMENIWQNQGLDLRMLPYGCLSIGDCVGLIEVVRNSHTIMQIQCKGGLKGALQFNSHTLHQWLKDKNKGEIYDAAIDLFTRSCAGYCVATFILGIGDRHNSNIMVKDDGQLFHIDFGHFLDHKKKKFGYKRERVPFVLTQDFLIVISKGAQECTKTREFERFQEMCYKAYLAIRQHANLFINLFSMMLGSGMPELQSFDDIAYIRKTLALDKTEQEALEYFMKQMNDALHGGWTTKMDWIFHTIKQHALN", "description": "(§1) To investigate the potential therapeutic benefit of inhibiting RIP1, we developed GNE684 or (S)-N-((S)-7-methoxy-1-methyl-2-oxo-2,3,4,5-tetrahydro-1H-pyrido[3,4-b]azepin-3-yl)-5-phenyl-6,7-dihydro-5H-pyrrolo[1,2-b][1,2,4]triazole-2-carboxamide with cross-species potency against RIP1, exquisite kinase selectivity, and favorable pharmacological properties (Fig. 1a–h, S1, Tables S1 and S2, SI file 1). […] (Fig. 1b, S1, and Table S1). […] GNE684 inhibited human RIP1 potently in vitro, and mouse and rat RIP1 with slightly less potency (Fig. 1d). Accordingly, it inhibited TNF-induced necroptosis in human HT-29, mouse L929, or rat H9c2 cells (Fig. 1e). The cellular potency of GNE684 was confirmed in a human whole blood assay using TBZ (TNF, IAP antagonist BV6, and pan-caspase inhibitor zVAD) or LZ (LPS plus zVAD) to trigger necroptosis and the release of IL-1α and IL-1β (Fig. 1f)."}, "CDK2": {"biological_target": "CDK2 (Homo sapiens, UniProt P24941)", "description": "as §1"}, "NEK1": {"biological_target": "NEK1 (Homo sapiens, UniProt Q96PY6)", "description": "as §1"}, "EPHA2": {"biological_target": "EPHA2 (Homo sapiens, UniProt P29317)", "description": "as §1"}, "RIPK1": {"biological_target": "RIPK1 (Homo sapiens, UniProt Q13546)", "description": "as §1"}, "DDR1": {"biological_target": "DDR1 (Homo sapiens, UniProt Q08345)", "description": "as §1"}, "FGFR4": {"biological_target": "FGFR4 (Homo sapiens, UniProt P22455)", "sequence (P22455 whole entry)": "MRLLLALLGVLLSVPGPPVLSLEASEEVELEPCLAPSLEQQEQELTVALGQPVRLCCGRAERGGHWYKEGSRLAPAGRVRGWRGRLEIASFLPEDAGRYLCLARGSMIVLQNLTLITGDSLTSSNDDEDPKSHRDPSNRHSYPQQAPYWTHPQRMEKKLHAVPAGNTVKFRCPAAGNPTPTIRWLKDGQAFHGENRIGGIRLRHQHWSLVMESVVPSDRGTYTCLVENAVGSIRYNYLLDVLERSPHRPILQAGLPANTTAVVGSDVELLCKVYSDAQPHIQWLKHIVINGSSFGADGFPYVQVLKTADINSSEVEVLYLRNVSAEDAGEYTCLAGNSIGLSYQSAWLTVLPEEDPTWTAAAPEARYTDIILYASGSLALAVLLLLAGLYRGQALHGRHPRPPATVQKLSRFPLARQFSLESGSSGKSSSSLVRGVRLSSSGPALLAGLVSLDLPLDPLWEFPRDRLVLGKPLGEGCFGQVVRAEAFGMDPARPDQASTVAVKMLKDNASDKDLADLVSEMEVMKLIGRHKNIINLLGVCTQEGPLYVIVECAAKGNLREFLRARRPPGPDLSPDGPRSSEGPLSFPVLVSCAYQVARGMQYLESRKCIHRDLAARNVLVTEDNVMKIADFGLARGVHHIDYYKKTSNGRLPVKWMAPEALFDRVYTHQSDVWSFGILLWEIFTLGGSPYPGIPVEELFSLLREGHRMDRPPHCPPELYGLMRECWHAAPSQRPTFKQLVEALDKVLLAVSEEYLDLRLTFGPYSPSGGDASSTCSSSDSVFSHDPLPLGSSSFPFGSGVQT", "description": "as §1"}, "MYO3A": {"biological_target": "MYO3A (Homo sapiens, UniProt Q8NEV4)", "sequence (Q8NEV4 whole entry)": "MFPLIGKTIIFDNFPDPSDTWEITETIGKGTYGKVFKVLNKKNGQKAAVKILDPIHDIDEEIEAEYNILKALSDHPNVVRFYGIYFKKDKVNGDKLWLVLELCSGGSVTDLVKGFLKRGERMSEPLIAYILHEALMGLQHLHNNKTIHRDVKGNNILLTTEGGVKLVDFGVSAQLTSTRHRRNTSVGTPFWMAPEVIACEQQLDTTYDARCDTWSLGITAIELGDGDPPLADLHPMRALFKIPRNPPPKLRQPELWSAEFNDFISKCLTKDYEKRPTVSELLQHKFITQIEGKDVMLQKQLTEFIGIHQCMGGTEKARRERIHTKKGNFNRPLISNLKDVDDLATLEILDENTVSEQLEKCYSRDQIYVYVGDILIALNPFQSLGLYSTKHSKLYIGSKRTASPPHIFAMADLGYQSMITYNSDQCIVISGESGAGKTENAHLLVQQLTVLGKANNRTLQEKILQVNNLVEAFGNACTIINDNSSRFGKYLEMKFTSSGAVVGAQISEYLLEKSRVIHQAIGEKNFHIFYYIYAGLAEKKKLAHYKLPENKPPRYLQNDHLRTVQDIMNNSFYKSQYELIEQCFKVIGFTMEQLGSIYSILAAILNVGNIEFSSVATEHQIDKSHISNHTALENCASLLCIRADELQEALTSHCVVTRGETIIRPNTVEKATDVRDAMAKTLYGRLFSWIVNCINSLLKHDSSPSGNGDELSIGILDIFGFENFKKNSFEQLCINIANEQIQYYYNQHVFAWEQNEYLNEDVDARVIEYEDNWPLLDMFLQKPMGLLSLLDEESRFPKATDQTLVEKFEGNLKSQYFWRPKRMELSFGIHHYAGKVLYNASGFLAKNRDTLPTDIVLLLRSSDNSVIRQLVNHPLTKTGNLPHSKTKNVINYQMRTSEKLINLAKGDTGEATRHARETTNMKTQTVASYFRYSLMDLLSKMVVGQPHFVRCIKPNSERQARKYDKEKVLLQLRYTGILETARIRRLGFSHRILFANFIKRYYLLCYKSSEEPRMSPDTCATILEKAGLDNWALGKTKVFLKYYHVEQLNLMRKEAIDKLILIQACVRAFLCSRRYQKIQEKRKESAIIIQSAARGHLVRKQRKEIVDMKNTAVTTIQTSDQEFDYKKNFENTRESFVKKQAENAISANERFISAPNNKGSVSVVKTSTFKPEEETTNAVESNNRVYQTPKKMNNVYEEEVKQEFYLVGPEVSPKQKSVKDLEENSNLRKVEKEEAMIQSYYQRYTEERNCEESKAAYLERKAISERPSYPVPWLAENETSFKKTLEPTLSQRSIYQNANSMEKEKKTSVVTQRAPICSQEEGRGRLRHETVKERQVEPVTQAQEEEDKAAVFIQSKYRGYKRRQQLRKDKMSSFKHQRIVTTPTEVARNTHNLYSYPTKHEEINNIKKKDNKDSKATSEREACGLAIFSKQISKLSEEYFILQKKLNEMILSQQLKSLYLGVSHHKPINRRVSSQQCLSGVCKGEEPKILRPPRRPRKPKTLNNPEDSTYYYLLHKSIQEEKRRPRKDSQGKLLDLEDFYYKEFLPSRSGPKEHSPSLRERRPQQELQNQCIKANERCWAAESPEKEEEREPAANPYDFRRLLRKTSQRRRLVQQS", "description": "as §1"}, "MUSK": {"biological_target": "MUSK (Homo sapiens, UniProt O15146)", "sequence (O15146 whole entry)": "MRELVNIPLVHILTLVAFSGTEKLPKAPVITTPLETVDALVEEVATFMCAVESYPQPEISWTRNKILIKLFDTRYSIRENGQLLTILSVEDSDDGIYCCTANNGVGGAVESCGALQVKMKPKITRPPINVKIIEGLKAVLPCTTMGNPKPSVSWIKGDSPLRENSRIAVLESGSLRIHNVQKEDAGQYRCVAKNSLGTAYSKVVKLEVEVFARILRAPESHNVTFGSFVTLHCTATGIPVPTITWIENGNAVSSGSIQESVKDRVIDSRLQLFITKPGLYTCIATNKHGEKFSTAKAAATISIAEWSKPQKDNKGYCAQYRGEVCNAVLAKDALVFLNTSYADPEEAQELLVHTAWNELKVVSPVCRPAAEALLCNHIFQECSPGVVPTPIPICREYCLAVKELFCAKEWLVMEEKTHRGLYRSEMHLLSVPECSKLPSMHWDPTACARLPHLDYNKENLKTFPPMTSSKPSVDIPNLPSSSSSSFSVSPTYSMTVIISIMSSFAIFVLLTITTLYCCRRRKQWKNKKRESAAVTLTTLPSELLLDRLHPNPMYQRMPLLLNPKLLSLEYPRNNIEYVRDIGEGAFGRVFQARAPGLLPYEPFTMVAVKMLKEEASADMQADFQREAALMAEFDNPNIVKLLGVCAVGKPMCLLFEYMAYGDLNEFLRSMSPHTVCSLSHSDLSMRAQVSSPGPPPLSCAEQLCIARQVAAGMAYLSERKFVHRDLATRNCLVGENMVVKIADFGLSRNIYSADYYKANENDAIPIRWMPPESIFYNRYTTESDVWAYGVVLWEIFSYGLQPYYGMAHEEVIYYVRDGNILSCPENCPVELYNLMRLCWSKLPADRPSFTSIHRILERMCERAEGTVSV", "description": "as §1"}, "SRMS": {"biological_target": "SRMS (Homo sapiens, UniProt Q9H3Y6)", "sequence (Q9H3Y6 whole entry)": "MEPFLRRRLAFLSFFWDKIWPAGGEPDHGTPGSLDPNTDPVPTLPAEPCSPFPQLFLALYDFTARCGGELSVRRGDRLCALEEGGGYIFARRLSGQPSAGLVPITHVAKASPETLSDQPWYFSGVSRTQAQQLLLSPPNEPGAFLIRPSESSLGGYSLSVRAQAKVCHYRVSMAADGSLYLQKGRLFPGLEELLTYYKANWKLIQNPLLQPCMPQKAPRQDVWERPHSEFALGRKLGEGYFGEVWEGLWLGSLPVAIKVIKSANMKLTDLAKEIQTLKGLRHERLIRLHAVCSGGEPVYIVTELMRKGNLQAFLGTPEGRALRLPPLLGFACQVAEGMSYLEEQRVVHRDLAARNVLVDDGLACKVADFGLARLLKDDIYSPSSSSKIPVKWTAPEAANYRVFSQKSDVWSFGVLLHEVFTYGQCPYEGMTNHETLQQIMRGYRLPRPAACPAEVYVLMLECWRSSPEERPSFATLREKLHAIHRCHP", "description": "as §1"}, "WEE2": {"biological_target": "WEE2 (Homo sapiens, UniProt P0C1S8)", "description": "as §1"}, "BMX": {"biological_target": "BMX (Homo sapiens, UniProt P51813)", "description": "as §1"}, "NDR1": {"biological_target": "T1, NDR1 (Homo sapiens, UniProt Q15208)", "T1 construct": "gene STK38", "description": "as §1"}, "INSRR": {"biological_target": "INSRR (Homo sapiens, UniProt P14616)", "description": "as §1"}, "ZAK": {"biological_target": "T2, ZAK (Homo sapiens, UniProt Q9NYL2)", "T2 construct": "gene MAP3K20", "description": "as §1"}, "PKN1": {"biological_target": "PKN1 (Homo sapiens, UniProt Q16512)", "description": "as §1"}, "[1]": {"biological_target": "T3, TYK2(JH2domain-pseudokinase) (Homo sapiens, UniProt P29597)", "T3 construct": "JH2domain-pseudokinase", "description": "as §1"}, "TRKC": {"biological_target": "T4, TRKC (Homo sapiens, UniProt Q16288)", "T4 construct": "gene NTRK3", "description": "as §1"}, "GRK4": {"biological_target": "GRK4 (Homo sapiens, UniProt P32298)", "description": "as §1"}, "[2]": {"biological_target": "T5, ABL1(F317L)-nonphosphorylated (Homo sapiens, UniProt P00519, F317L)", "T5 construct": "nonphosphorylated", "description": "as §1"}, "AKT3": {"biological_target": "AKT3 (Homo sapiens, UniProt Q9Y243)", "description": "as §1"}}, "data": [{"molecule": "COc1cc2c(cn1)N(C)C(=O)[C@@H](NC(=O)c1nc3n(n1)[C@H](c1ccccc1)CC3)CC2", "note": "[GNE684, (S)-N-((S)-7-methoxy-1-methyl-2-oxo-2,3,4,5-tetrahydro-1H-pyrido[3,4-b]azepin-3-yl)-5-phenyl-6,7-dihydro-5H-pyrrolo[1,2-b][1,2,4]triazole-2-carboxamide]", "values": [{"measurement": "remaining binding at 10 µM", "setting": "PIK3CA(H1047L)", "result": 95, "unit": "%"}, {"measurement": "remaining binding at 10 µM", "setting": "CDK2", "result": 100, "unit": "%"}, {"measurement": "remaining binding at 10 µM", "setting": "NEK1", "result": 100, "unit": "%"}, {"measurement": "remaining binding at 10 µM", "setting": "EPHA2", "result": 97, "unit": "%"}, {"measurement": "remaining binding at 10 µM", "setting": "RIPK1", "result": 0, "unit": "%"}, {"measurement": "remaining binding at 10 µM", "setting": "DDR1", "result": 100, "unit": "%"}, {"measurement": "remaining binding at 10 µM", "setting": "FGFR4", "result": 88, "unit": "%"}, {"measurement": "remaining binding at 10 µM", "setting": "MYO3A", "result": 95, "unit": "%"}, {"measurement": "remaining binding at 10 µM", "setting": "MUSK", "result": 98, "unit": "%"}, {"measurement": "remaining binding at 10 µM", "setting": "SRMS", "result": 100, "unit": "%"}, {"measurement": "remaining binding at 10 µM", "setting": "WEE2", "result": 95, "unit": "%"}, {"measurement": "remaining binding at 10 µM", "setting": "BMX", "result": 94, "unit": "%"}, {"measurement": "remaining binding at 10 µM", "setting": "NDR1", "result": 79, "unit": "%"}, {"measurement": "remaining binding at 10 µM", "setting": "INSRR", "result": 92, "unit": "%"}, {"measurement": "remaining binding at 10 µM", "setting": "ZAK", "result": 99, "unit": "%"}, {"measurement": "remaining binding at 10 µM", "setting": "PKN1", "result": 94, "unit": "%"}, {"measurement": "remaining binding at 10 µM", "setting": "[1]", "result": 100, "unit": "%"}, {"measurement": "remaining binding at 10 µM", "setting": "TRKC", "result": 69, "unit": "%"}, {"measurement": "remaining binding at 10 µM", "setting": "GRK4", "result": 100, "unit": "%"}, {"measurement": "remaining binding at 10 µM", "setting": "[2]", "result": 79, "unit": "%"}, {"measurement": "remaining binding at 10 µM", "setting": "AKT3", "result": 75, "unit": "%"}]}]}
